Assay results as given in US20070111118A1, “Electrophotographic photoconductor and image-forming apparatus” (priority 2005, published 2007).

Assay: Solubility of the hole-transfer agent in triglyceride oleate
Format: physicochemical
Conditions: 25° C., g per 100 g of triglyceride oleate
From the text: Here, the term “solubility in triglyceride oleate (% by weight)” means the amount of a solvent (hole-transfer agent) (g) with reference to 100 g of triglyceride oleate.

HTM Solubility [w %]	SMILES
11.1	CC(C)c1ccc(N(c2ccccc2)c2cccc(N(c3ccccc3)c3ccc(C(C)C)cc3)c2)cc1 [HTM-1]
2.1	CCc1cccc(C)c1N(c1ccccc1)c1ccc(/C=C/c2ccc(/C=C/c3ccc(N(c4ccccc4)c4c(C)cccc4CC)cc3)cc2)cc1 [HTM-8]
37.0	Cc1ccccc1N(c1ccc(-c2ccc(N(c3ccccc3C)c3ccccc3/C=C/c3ccccc3)cc2)cc1)c1ccccc1/C=C/c1ccccc1 [HTM-9]

SMILES	HTM Solubility [w %]
CCCCc1ccc(N(c2ccc(C)cc2)c2c(N(c3ccc(C)cc3)c3ccc(CCCC)cc3)c3ccccc3c3ccccc23)cc1 [HTM-10]	2.8
